Source: US8318762B2, “Pyrazolospiroketone acetyl-CoA carboxylase inhibitors” (Pfizer Inc., priority 2008, dated 2012)
pIC50: −log10 of the molar value.

target: T1, recombinant human ACC2 (Homo sapiens, UniProt O00763); experiment: Measurement of human ACC2 inhibition (recombinant hACC2 Transcreener ADP detection FP assay); type: biochemical; conditions: recombinant hACC2 transcreener assay; read-out: rhACC2 IC50
T1 construct: a full length Cytomax clone of ACC2 was purchased from Cambridge Bioscience Limited; made in house; host or cells: CHO cells (tetracycline induction, pcDNA5 FRT TO-TOPO); purified on a Softlink Soft Release Avidin column
Experimental: [3] Measurement of human ACC2 inhibition. Human ACC2 inhibition was measured using purified recombinant human ACC2 (hrACC2). […] The ACC2 was expressed in CHO cells by tetracycline induction and harvested in 5 liters of DMEM/F12 with glutamine, biotin, hygromycin and blasticidin with 1 μg/mL tetracycline (Invitrogen, Carlsbad, Calif.). The conditioned medium containing ACC2 was then applied to a Softlink Soft Release Avidin column (Promega, Madison, Wis.) and eluted with 5 mM biotin. […] The purified ACC2 was dialyzed in 50 mM Tris, 200 mM NaCl, 4 mM DTT, 2 mM EDTA, and 5% glycerol. […] The final conditions for the assay were 50 mM HEPES, pH7.5, 5 mM MgCl2, 5 mM tripotassium citrate, 2 mM DTT, 0.5 mg/mL BSA, 30 μM acetyl-CoA, 50 μM ATP, and 8 mM KHCO3. Typically, a 10 μl reaction was run for 1 hour at room temperature, and 10 μl of Transcreener stop and detect buffer was added and incubated for an additional 1 hour.

T1 sequence (O00763 whole entry): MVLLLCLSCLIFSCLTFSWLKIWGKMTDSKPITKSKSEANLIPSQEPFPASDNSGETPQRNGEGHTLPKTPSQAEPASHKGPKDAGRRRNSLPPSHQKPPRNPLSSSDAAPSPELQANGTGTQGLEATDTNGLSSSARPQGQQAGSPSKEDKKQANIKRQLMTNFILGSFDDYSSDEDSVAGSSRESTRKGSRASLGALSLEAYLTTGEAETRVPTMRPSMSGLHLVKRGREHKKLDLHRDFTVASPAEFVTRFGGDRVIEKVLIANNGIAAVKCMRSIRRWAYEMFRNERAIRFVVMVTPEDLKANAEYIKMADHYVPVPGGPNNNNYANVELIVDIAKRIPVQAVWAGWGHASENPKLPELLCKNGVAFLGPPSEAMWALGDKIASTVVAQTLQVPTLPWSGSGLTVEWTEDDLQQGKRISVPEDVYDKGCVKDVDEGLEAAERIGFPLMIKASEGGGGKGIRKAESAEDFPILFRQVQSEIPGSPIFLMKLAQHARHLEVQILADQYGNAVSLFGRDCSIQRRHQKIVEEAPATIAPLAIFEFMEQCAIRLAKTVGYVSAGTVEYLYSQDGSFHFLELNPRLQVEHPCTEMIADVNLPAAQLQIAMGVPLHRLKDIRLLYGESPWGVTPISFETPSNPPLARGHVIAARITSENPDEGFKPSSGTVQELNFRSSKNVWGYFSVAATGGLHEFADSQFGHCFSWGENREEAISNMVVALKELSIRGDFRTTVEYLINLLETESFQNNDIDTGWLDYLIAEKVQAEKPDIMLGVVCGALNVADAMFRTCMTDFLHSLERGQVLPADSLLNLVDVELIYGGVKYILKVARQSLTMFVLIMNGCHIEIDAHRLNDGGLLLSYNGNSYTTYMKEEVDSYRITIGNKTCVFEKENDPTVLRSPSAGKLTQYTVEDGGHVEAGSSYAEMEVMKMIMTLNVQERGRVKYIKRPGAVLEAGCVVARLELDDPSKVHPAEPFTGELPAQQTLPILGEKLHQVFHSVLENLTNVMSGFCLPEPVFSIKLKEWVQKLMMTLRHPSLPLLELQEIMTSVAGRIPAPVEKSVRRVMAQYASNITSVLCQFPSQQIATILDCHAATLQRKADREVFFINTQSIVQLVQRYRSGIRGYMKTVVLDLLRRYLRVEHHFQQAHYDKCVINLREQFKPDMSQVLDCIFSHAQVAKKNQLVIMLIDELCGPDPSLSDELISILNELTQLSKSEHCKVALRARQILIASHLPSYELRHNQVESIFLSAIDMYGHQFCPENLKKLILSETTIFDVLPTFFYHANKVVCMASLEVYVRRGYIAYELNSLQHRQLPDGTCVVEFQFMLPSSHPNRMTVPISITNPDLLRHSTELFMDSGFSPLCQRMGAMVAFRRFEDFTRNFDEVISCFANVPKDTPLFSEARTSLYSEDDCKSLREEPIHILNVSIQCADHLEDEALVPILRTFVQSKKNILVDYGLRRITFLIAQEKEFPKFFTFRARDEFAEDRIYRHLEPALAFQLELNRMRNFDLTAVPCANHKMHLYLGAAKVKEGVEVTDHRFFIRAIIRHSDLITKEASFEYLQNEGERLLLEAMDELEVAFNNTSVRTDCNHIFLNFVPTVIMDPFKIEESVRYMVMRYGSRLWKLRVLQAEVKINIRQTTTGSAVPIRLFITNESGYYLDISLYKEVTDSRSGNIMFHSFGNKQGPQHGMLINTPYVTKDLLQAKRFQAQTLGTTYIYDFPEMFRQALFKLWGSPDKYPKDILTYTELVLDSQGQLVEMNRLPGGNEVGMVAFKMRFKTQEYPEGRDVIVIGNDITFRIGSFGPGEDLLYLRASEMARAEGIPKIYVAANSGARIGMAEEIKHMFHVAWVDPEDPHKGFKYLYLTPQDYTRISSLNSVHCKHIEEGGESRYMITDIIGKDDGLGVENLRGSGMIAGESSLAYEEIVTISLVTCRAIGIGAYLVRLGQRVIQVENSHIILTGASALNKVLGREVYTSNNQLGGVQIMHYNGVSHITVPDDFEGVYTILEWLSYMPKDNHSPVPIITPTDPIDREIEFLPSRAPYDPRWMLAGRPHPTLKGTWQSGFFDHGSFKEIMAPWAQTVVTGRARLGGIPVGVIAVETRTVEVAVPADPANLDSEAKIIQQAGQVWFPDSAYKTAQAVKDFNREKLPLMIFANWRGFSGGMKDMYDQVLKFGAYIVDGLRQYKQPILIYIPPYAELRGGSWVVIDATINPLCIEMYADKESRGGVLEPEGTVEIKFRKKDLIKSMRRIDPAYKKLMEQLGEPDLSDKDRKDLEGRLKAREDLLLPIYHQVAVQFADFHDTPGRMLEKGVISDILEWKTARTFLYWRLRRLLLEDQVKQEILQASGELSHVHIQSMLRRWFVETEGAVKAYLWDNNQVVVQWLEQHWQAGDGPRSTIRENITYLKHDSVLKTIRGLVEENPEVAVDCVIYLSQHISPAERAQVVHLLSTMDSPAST

Structure (SMILES)	pIC50
CCc1cc(C(=O)N2CCC3(CC2)CC(=O)c2nn(CC)cc2O3)cc2c(C)n[nH]c12 [1.100]	7.44
CCc1n[nH]c2c(Cl)cc(C(=O)N3CCC4(CC3)CC(=O)c3nn(CC)cc3O4)cc12 [1.101]	7.35
Cc1n[nH]c2c(Cl)cc(C(=O)N3CCC4(CC3)CC(=O)c3nn(C(C)C)cc3O4)cc12 [1.102]	8.30
CC(C)(C)n1cc2c(n1)C(=O)CC1(CCN(C(=O)c3ccc4[nH]nc(Cl)c4c3)CC1)O2 [1.103]	8.30
Cc1cc(C(=O)N2CCC3(CC2)CC(=O)c2nn(C(C)C)cc2O3)cc2c(Cl)n[nH]c12 [1.104]	8.40
Cc1cc(C(=O)N2CCC3(CC2)CC(=O)c2nn(C(C)(C)C)cc2O3)cc2c(Cl)n[nH]c12 [1.105]	8.70
Cc1cc(C(=O)N2CCC3(CC2)CC(=O)c2nn(C4CCC4)cc2O3)cc2c(Cl)n[nH]c12 [1.106]	8.10
Cc1cc(C(=O)N2CCC3(CC2)CC(=O)c2nn(C4CCCC4)cc2O3)cc2c(Cl)n[nH]c12 [1.107]	8.52
CCn1cc2c(n1)C(=O)CC1(CCN(C(=O)c3cc(C)c4[nH]nc(Cl)c4c3)CC1)O2 [1.108]	7.72
CCCn1cc2c(n1)C(=O)CC1(CCN(C(=O)c3cc(C)c4[nH]nc(Cl)c4c3)CC1)O2 [1.109]	7.92
Cc1n[nH]c2c(Cl)cc(C(=O)N3CCC4(CC3)CC(=O)c3nn(C(C)(C)C)cc3O4)cc12 [1.110]	8.52
CCn1nc2c(c1C)OC1(CCN(C(=O)c3cc(Cl)c4[nH]nc(C)c4c3)CC1)CC2=O [1.111]	7.92
CCn1nc2c(c1C)OC1(CCN(C(=O)c3ccc4c(cnn4C)c3)CC1)CC2=O [1.112]	7.10
CCc1cc(C(=O)N2CCC3(CC2)CC(=O)c2nn(CC)c(C)c2O3)cc2c(C)n[nH]c12 [1.113]	8.00
CCOc1cc(C(=O)N2CCC3(CC2)CC(=O)c2nn(CC)cc2O3)cc2c(C)n[nH]c12 [1.115]	7.92
CCOc1cc(C(=O)N2CCC3(CC2)CC(=O)c2nn(C(C)(C)C)cc2O3)cc2c(C)n[nH]c12 [1.116]	8.30
CCOc1cc(C(=O)N2CCC3(CC2)CC(=O)c2nn(C(C)(C)C)cc2O3)cc2c(CC)n[nH]c12 [1.117]	8.40
CCOc1cc(C(=O)N2CCC3(CC2)CC(=O)c2nn(CC)c(C)c2O3)cc2c(C)n[nH]c12 [1.118]	7.57
CCOc1cc(C(=O)N2CCC3(CC2)CC(=O)c2nn(C(C)C)cc2O3)cc2c(C)n[nH]c12 [1.120]	8.22
CCOc1cc(C(=O)N2CCC3(CC2)CC(=O)c2nn(C(C)C)cc2O3)cc2c(CC)n[nH]c12 [1.121]	8.22

Structure (SMILES)	pIC50
CCOc1cc(C(=O)N2CCC3(CC2)CC(=O)c2nn(C(C)C)c(C)c2O3)cc2cn[nH]c12 [1.122]	8.30
Cc1c2c(nn1C)C(=O)CC1(CCN(C(=O)c3ccc4c(cnn4C)c3)CC1)O2 [1.124]	< 5.52
CCc1n[nH]c2c(C)cc(C(=O)N3CCC4(CC3)CC(=O)c3nn(CC)c(C)c3O4)cc12 [1.125]	8.15
Cc1n[nH]c2c(C)cc(C(=O)N3CCC4(CC3)CC(=O)c3nn(C5CCC5)c(C)c3O4)cc12 [1.126]	8.52
COc1cc(C(=O)N2CCC3(CC2)CC(=O)c2nn(C4CCC4)c(C)c2O3)cc2cn[nH]c12 [1.127]	7.70
Cc1cc(C(=O)N2CCC3(CC2)CC(=O)c2nn(C4CCC4)c(C)c2O3)cc2cn[nH]c12 [1.128]	8.10
Cc1n[nH]c2c(C)cc(C(=O)N3CCC4(CC3)CC(=O)c3nn(CC(C)C)c(C)c3O4)cc12 [1.129]	8.30
Cc1cc(C(=O)N2CCC3(CC2)CC(=O)c2nn(CC(C)C)c(C)c2O3)cc2cn[nH]c12 [1.130]	7.89
COc1cc(C(=O)N2CCC3(CC2)CC(=O)c2nn(CC(C)C)c(C)c2O3)cc2cn[nH]c12 [1.131]	7.72
COc1cc(C(=O)N2CCC3(CC2)CC(=O)c2nn(CC(C)C)c(C)c2O3)cc2c(C)n[nH]c12 [1.132]	7.89
Cc1c2c(nn1C(C)C)C(=O)CC1(CCN(C(=O)c3cc(Cl)c4[nH]ncc4c3)CC1)O2 [1.133]	8.40
Cc1n[nH]c2c(C)cc(C(=O)N3CCC4(CC3)CC(=O)c3nn(CC(C)C)cc3O4)cc12 [1.134]	8.00
CCC(C)n1cc2c(n1)C(=O)CC1(CCN(C(=O)c3cc(C)c4[nH]nc(C)c4c3)CC1)O2 (stereo not shown) [1.140]	8.70
CCC(C)n1cc2c(n1)C(=O)CC1(CCN(C(=O)c3ccc4[nH]ncc4c3)CC1)O2 (stereo not shown) [1.142]	7.70
Cc1n[nH]c2c(C)cc(C(=O)N3CCC4(CC3)CC(=O)c3nn(C5CC5)cc3O4)cc12 [1.143]	8.15
Cc1cc(C(=O)N2CCC3(CC2)CC(=O)c2nn(C4CC4)cc2O3)cc2cn[nH]c12 [1.144]	7.72
Cn1ncc2cc(C(=O)N3CCC4(CC3)CC(=O)c3nn(C(C)(C)C)cc3O4)ccc21 [1.145]	7.59
Cc1n[nH]c2cc(C(=O)N3CCC4(CC3)CC(=O)c3nn(C(C)C)cc3O4)ccc12 [2.005]	7.48
CC(C)n1cc2c(n1)C(=O)CC1(CCN(C(=O)c3cc(Cl)c4cn[nH]c4c3)CC1)O2 [2.006]	7.89

Other lines, results leading:

pIC50	Structure (SMILES)
7.85	CCc1nn(C)c2cc(C(=O)N3CCC4(CC3)CC(=O)c3nn(C(C)C)cc3O4)ccc12 [2.007]
7.09	CCc1nn(C)c2cc(C(=O)N3CCC4(CC3)CC(=O)c3nn(CC)cc3O4)ccc12 [2.008]
8.15	CC(C)(C)n1cc2c(n1)C(=O)CC1(CCN(C(=O)c3cc(Cl)c4cn[nH]c4c3)CC1)O2 [2.009]
7.55	Cc1n[nH]c2cc(C(=O)N3CCC4(CC3)CC(=O)c3nn(C(C)(C)C)cc3O4)ccc12 [2.010]
7.09	CCn1nc2c(c1C)OC1(CCN(C(=O)c3ccc4cn[nH]c4c3)CC1)CC2=O [2.011]
8.15	CC(C)(C)n1cc2c(n1)C(=O)CC1(CCN(C(=O)c3ccc4cn[nH]c4c3)CC1)O2 [2.012]
7.72	Cn1ncc2ccc(C(=O)N3CCC4(CC3)CC(=O)c3nn(C(C)(C)C)cc3O4)cc21 [2.013]
7.55	CC(C)(C)n1cc2c(n1)C(=O)CC1(CCN(C(=O)c3cc(F)c4cn[nH]c4c3)CC1)O2 [2.014]
6.87	CC(C)n1cc2c(n1)C(=O)CC1(CCN(C(=O)c3cc(F)c4cn[nH]c4c3)CC1)O2 [2.015]
6.70	CCn1nc2c(c1C)OC1(CCN(C(=O)c3cc(F)c4cn[nH]c4c3)CC1)CC2=O [2.016]
7.28	CC(C)(C)n1cc2c(n1)C(=O)CC1(CCN(C(=O)c3ccc4cn[nH]c4c3F)CC1)O2 [2.017]
7.48	Cc1cc(C(=O)N2CCC3(CC2)CC(=O)c2nn(C(C)(C)C)cc2O3)cc2[nH]ncc12 [2.018]
7.57	COc1c(C(=O)N2CCC3(CC2)CC(=O)c2nn(C(C)(C)C)cc2O3)ccc2cn[nH]c12 [2.020]
7.15	CCn1nc2c(c1C)OC1(CCN(C(=O)c3ccc4cn[nH]c4c3OC)CC1)CC2=O [2.021]
7.33	COc1c(C(=O)N2CCC3(CC2)CC(=O)c2nn(C(C)C)cc2O3)ccc2cn[nH]c12 [2.022]
8.52	COc1cc(C(=O)N2CCC3(CC2)CC(=O)c2nn(C(C)(C)C)cc2O3)cc2[nH]ncc12 [2.023]
7.22	CCn1cc2c(n1)C(=O)CC1(CCN(C(=O)c3ccc4c(C)n[nH]c4c3)CC1)O2 [2.024]
7.36	CCn1nc2c(c1C)OC1(CCN(C(=O)c3ccc4c(C)n[nH]c4c3)CC1)CC2=O [2.025]
7.55	Cc1nc2c(C)cc(C(=O)N3CCC4(CC3)CC(=O)c3nn(C(C)C)cc3O4)cc2[nH]1 [3.001]
